One test relates to HCT116 MTAP null cells. In words: HCT116 MTAP null cell line proliferation (CellTiter-Glo cell viability, 6 days). The class given is cell-based. Conditions: HCT116-MTAP null, 144 h, HCT116 MTAP null cells, 6 days of treatment, CellTiter-Glo cell viability; read-out: HCT-116 MTAP null IC50. In short, it runs like this:
(§1)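 Isogenic HCT116 pair (both MTAP alleles knocked out vs parent) in RPMI 1640 + 10% FBS, seeded overnight at 37° C, 5% CO2, then exposed 6 days to 8- or 9-point 1:3 dilutions from 1 or 10 μM. CellTiter-Glo luminescence; IC50 from sigmoidal fit, Hill slope fixed −1, top 100%, or 4-parameter logistic.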
(In general: Cellular ATP, detected with luciferase, serves as a proxy for viable cell number.)

Another test concerns HCT116 WT cells. In words: HCT116 WT cell line proliferation (CellTiter-Glo cell viability, 6 days). The class given is cell-based. To be noted: Homo sapiens, HCT-116, 144 h, HCT116 WT (parent) cells, 6 days of treatment, CellTiter-Glo cell viability; read-out: HCT-116 WT IC50. In short, it runs like this:
as §1

Each structure is given as a SMILES string.

A word on the IC50: it is the midpoint of a concentration-inhibition curve. As for `CCOc1ccc([C@@H]2COCCN2C(=O)c2ccc3nc(N)c4c(c3c2)CO[C@@H]4C)nn1` (racemic) [Example 393, ((3R)-4-amino-3-methyl-1,3-dihydrofuro[3,4-c]quinolin-8-yl)((3R)-3-(6-ethoxy-3-pyridazinyl)-4-morpholinyl)methanone and ((3R)-4-amino-3-methyl-1,3-dihydrofuro[3,4-c]quinolin-8-yl)((3S)-3-(6-ethoxy-3-pyridazinyl)-4-morpholinyl)methanone], the half-maximal inhibitory concentration (IC50) is 0.971 µM in the test with HCT116 MTAP null cells and over 50 µM in the test with HCT116 WT cells.

As for `Nc1nc2cc(F)c(C(=O)N3CCC(c4ccc(C(F)(F)F)cn4)C3)cc2c2c1COC2` (racemic) [Example 412, (4-amino-7-fluoro-1,3-dihydrofuro[3,4-c]quinolin-8-yl)((3R)-3-(5-(trifluoromethyl)-2-pyridinyl)-1-pyrrolidinyl)methanone and (4-amino-7-fluoro-1,3-dihydrofuro [3,4-c]quinolin-8-yl)((3S)-3-(5-(trifluoromethyl)-2-pyridinyl)-1-pyrrolidinyl)methanone], the IC50 in the test on HCT116 MTAP null cells was 0.725 µM; in the test on HCT116 WT cells, 20.8 µM.

In the case of `C[C@H]1OCc2c1c(N)nc1ccc(C(=O)N3C[C@@H](c4ccccc4)[C@H](c4ccccc4)C3)cc21` (racemic) [Example 431, ((3R)-4-amino-3-methyl-1,3-dihydrofuro[3,4-c]quinolin-8-yl)((3R,4R)-3,4-diphenyl-1-pyrrolidinyl)methanone and ((3R)-4-amino-3-methyl-1,3-dihydrofuro[3,4-c]quinolin-8-yl)((3S,4S)-3,4-diphenyl-1-pyrrolidinyl)methanone], the concentration for half-maximal inhibition (IC50) in the test on HCT116 MTAP null cells was determined as 0.337 µM; in the test on HCT116 WT cells, 11.4 µM.

Take `C[C@H]1OCc2c1c(N)nc1ccc(C(=O)N3C[C@@H](c4ccc(F)cc4)[C@H](c4cc[nH]n4)C3)cc21` (racemic) [Example 434, ((3R)-4-amino-3-methyl-1,3-dihydrofuro[3,4-c]quinolin-8-yl)((3R,4S)-3-(4-fluorophenyl)-4-(1H-pyrazol-3-yl)-1-pyrrolidinyl)methanone and ((3R)-4-amino-3-methyl-1,3-dihydrofuro[3,4-c]quinolin-8-yl)((3S,4R)-3-(4-fluorophenyl)-4-(1H-pyrazol-3-yl)-1-pyrrolidinyl)methanone]: the IC50 in the test on HCT116 MTAP null cells is 0.468 µM; in the test with HCT116 WT cells, 8.22 µM.

Turning to `Nc1nc2ncc(C(=O)N3CCOCC3c3ccc(C(F)(F)F)cc3)cc2c2c1COC2` (racemic) [Example 483, rac-(4-amino-1,3-dihydrofuro[3,4-c][1,8]naphthyridin-8-yl)(3-(4-(trifluoromethyl)phenyl)morpholino)methanone], the figures for the IC50 with HCT116 MTAP null cells and with HCT116 WT cells were over 1 µM and over 10 µM, respectively.

For `N#Cc1cnc(C2COCCN2C(=O)c2ccc3nc(N)c4c(c3c2)COC4)cc1Cl` (racemic) [Example 492, 4-chloro-6-[rac-(3S)-4-(4-amino-1,3-dihydrofuro[3,4-c]quinoline-8-carbonyl)morpholin-3-yl]pyridine-3-carbonitrile], the concentration for half-maximal inhibition (IC50) with HCT116 MTAP null cells stood at 0.764 µM; with HCT116 WT cells, 0.318 µM.

`Nc1nc2ccc(C(=O)N3CCOCC3c3ccccc3)cc2c2c1COC2` (racemic) [Example 493, (4-amino-1,3-dihydrofuro[3,4-c]quinolin-8-yl)-[rac-(3S)-3-phenylmorpholin-4-yl]methanone]: the IC50 in the test with HCT116 MTAP null cells was over 1 µM; with HCT116 WT cells it was over 10 µM.

Turning to `Nc1nc2cnc(C(=O)N3CCOCC3c3ccc(C(F)(F)F)cn3)cc2c2c1COC2` (racemic) [Example 494, (4-amino-1,3-dihydrofuro[3,4-c][1,7]naphthyridin-8-yl)-[rac-(3S)-3-[5-(trifluoromethyl)-2-pyridyl]morpholin-4-yl]methanone], the results for the IC50 in the test with HCT116 MTAP null cells and in the test on HCT116 WT cells were 0.352 µM and 14 µM, respectively.

`Nc1nc2ccc(C(=O)N3CCOCC3c3ccc(OC(F)F)cc3)cc2c2c1COC2` (racemic) [Example 496, (4-amino-1,3-dihydrofuro[3,4-c]quinolin-8-yl)((3R)-3-(4-(difluoromethoxy)phenyl)-4-morpholinyl)methanone and (4-amino-1,3-dihydrofuro[3,4-c]quinolin-8-yl)((3S)-3-(4-(difluoromethoxy)phenyl)-4-morpholinyl)methanone]: the concentration for half-maximal inhibition (IC50) with HCT116 MTAP null cells was 0.486 µM; in the test on HCT116 WT cells, 19.8 µM.

On to `Cn1ncc2c3cc(C(=O)N4CCOCC4c4ccc(C(F)(F)F)cc4)ccc3nc(N)c21` (racemic) [Example 497, (4-amino-3-methyl-3H-pyrazolo[3,4-c]quinolin-8-yl)((3R)-3-(4-(trifluoromethyl)phenyl)-4-morpholinyl)methanone and (4-amino-3-methyl-3H-pyrazolo[3,4-c]quinolin-8-yl)((3S)-3-(4-(trifluoromethyl)phenyl)-4-morpholinyl)methanone], for which the results for the IC50 with HCT116 MTAP null cells and in the test with HCT116 WT cells were 0.477 µM and 26 µM, respectively.

Take `Cn1ncc2c3cc(C(=O)N4CCOCC4c4ccc(OC(F)(F)F)cc4)ccc3nc(N)c21` (racemic) [Example 498, (4-amino-3-methyl-3H-pyrazolo[3,4-c]quinolin-8-yl)((3R)-3-(4-(trifluoromethoxy)phenyl)-4-morpholinyl)methanone and (4-amino-3-methyl-3H-pyrazolo[3,4-c]quinolin-8-yl)((3S)-3-(4-(trifluoromethoxy)phenyl)-4-morpholinyl)methanone]: the IC50 with HCT116 MTAP null cells was determined as 0.711 µM; with HCT116 WT cells, 21.5 µM.

For `Cn1ncc2c3cc(C(=O)N4CCOCC4c4ccc(C(F)(F)F)cn4)ccc3nc(N)c21` (racemic) [Example 499, (4-amino-3-methyl-3H-pyrazolo[3,4-c]quinolin-8-yl)((3R)-3-(5-(trifluoromethyl)-2-pyridinyl)-4-morpholinyl)methanone and (4-amino-3-methyl-3H-pyrazolo[3,4-c]quinolin-8-yl)((3S)-3-(5-(trifluoromethyl)-2-pyridinyl)-4-morpholinyl)methanone], the 50% inhibitory concentration (IC50) was 1.1 µM with HCT116 MTAP null cells and 36.6 µM in the test on HCT116 WT cells.

For the compound `Nc1nc2ccc(C(=O)N3CCOCC3c3ccc(Br)nn3)cc2c2c1COC2` (racemic) [Example 500, (4-amino-1,3-dihydrofuro[3,4-c]quinolim-8-yl)-[rac-(3S)-3-(6-bromopyridazin-3-yl)morpholin-4-yl]methanone], the IC50 was over 1 µM in the test with HCT116 MTAP null cells and over 10 µM in the test with HCT116 WT cells.

`Nc1nc2cnc(C(=O)N3CCOCC3c3c(F)cc(Br)cc3F)cc2c2c1COC2` (racemic) [Example 505, (4-amino-1,3-dihydrofuro[3,4-c][1,7]naphthyridin-8-yl)((3R)-3-(4-bromo-2,6-difluorophenyl)-4-morpholinyl)methanone and (4-amino-1,3-dihydrofuro[3,4-c][1,7]naphthyridin-8-yl)((3S)-3-(4-bromo-2,6-difluorophenyl)-4-morpholinyl)methanone]: the values for the IC50 with HCT116 MTAP null cells and with HCT116 WT cells were 0.33 µM and 21.5 µM, respectively.

With `Nc1nc2ccc(C(=O)N3CCOCC3c3ccc(CC(F)(F)F)cc3)cc2c2c1COC2` (racemic) [Example 508, (4-amino-1,3-dihydrofuro[3,4-c]quinolin-8-yl)((3R)-3-(4-(2,2,2-trifluoroethyl)phenyl)-4-morpholinyl)methanone and (4-amino-1,3-dihydrofuro[3,4-c]quinolin-8-yl)((3S)-3-(4-(2,2,2-trifluoroethyl)phenyl)-4-morpholinyl)methanone], the results for the IC50 with HCT116 MTAP null cells and in the test with HCT116 WT cells were 0.603 µM and 6.61 µM, respectively.

For `Nc1nc2cnc(C(=O)N3CCOCC3c3ccc(CC(F)(F)F)cc3)cc2c2c1COC2` (racemic) [Example 509, (4-amino-1,3-dihydrofuro[3,4-c][1,7]naphthyridin-8-yl)((3R)-3-(4-(2,2,2-trifluoroethyl)phenyl)-4-morpholinyl)methanone and (4-amino-1,3-dihydrofuro[3,4-c][1,7]naphthyridin-8-yl)((3S)-3-(4-(2,2,2-trifluoroethyl)phenyl)-4-morpholinyl)methanone], the values for the IC50 in the test with HCT116 MTAP null cells and in the test with HCT116 WT cells were 0.325 µM and 10.6 µM, respectively.

Turning to `Cc1ccc(C2COCCN2C(=O)c2ccc3nc(N)c4c(c3c2)COC4)cn1` (racemic) [Example 512, (4-amino-1,3-dihydrofuro[3,4-c]quinolin-8-yl)-[rac-(3R)-3-(6-methyl-3-pyridyl)morpholin-4-yl]methanone], the IC50 with HCT116 MTAP null cells is over 1 µM; in the test with HCT116 WT cells it was over 10 µM.

Consider `Nc1nc2ccc(C(=O)N3CCOCC3c3ccc(C(F)(F)F)nc3)cc2c2c1COC2` (racemic) [Example 513, (4-amino-1,3-dihydrofuro[3,4-c]quinolin-8-yl)-[rac-(3S)-3-[6-(trifluoromethyl)-3-pyridyl]morpholin-4-yl]methanone], for which the IC50 in the test on HCT116 MTAP null cells was 0.38 µM; in the test with HCT116 WT cells it was over 10 µM.

For the compound `Cn1ncc2c(N)nc3cc(F)c(C(=O)N4CCC(c5ccc(C(F)(F)F)cn5)C4)cc3c21` (racemic) [Example 541, (4-amino-7-fluoro-1-methyl-1H-pyrazolo[4,3-c]quinolin-8-yl)((3R)-3-(5-(trifluoromethyl)-2-pyridinyl)-1-pyrrolidinyl)methanone and (4-amino-7-fluoro-1-methyl-1H-pyrazolo[4,3-c]quinolin-8-yl)((3S)-3-(5-(trifluoromethyl)-2-pyridinyl)-1-pyrrolidinyl)methanone], the IC50 was found to be 0.056 µM in the test on HCT116 MTAP null cells and 5.33 µM in the test with HCT116 WT cells.

Regarding `Nc1nc2cc(Cl)c(C(=O)N3CCC(c4ccc(C(F)(F)F)cn4)C3)cc2c2c1COC2` (racemic) [Example 542, (4-amino-7-chloro-1,3-dihydrofuro[3,4-c]quinolin-8-yl)((3R)-3-(5-(trifluoromethyl)-2-pyridinyl)-1-pyrrolidinyl)methanone and (4-amino-7-chloro-1,3-dihydrofuro[3,4-c]quinolin-8-yl)((3S)-3-(5-(trifluoromethyl)-2-pyridinyl)-1-pyrrolidinyl)methanone], the IC50 amounted to 0.235 µM in the test with HCT116 MTAP null cells and 12.5 µM with HCT116 WT cells.

(Values after US11845760B2, “PRMT5 inhibitors” (AMGEN INC., priority 2020, dated 2023).)
